Test results from article PMC10244169, “Psychedelics promote plasticity by directly binding to BDNF receptor TrkB” (Nature Neuroscience, 2023).
Where a name gives a salt, the structure may show the parent alone. Read-outs that look alike come from different tables or passages of the source.

Assays:
[1] = molecular target: T1, TrkB (Rattus norvegicus, UniProt Q63604); test: biochemical; type: binding; details: for Bmax (specific binding with Hill slope, best-fit) / h (Hill slope, best-fit): ext fig 1f, competition curve, n=5; for displacement of ^3H-LSD from TrkB: 1 nM to 10 µM of drug
T1 construct: expressed in transfected cells; host or cells: HEK293T

[2] = molecular target: T2, TrkB (WT) dimerization (Rattus norvegicus, UniProt Q63604); test: Split-luciferase PCA of TrkB dimerization in N2a cells; type: cell-based; details: for Group mean (Mean 2; Vehicle:Vehicle = 100), fig 4e: n=48
T2 construct: expressed in transfected cells; host or cells: N2a
Procedure: Ketanserin, M100907 and TRKB.FC were added to the media 10 min before treatment. The PCA method was performed as previously described[11],[75],[76]. Split humanized Gaussia princeps luciferase (hGLuc) was cloned on the C-terminus of the reporter proteins TrkB (WT and Y433F) and lipid raft Fyn. If the reporter proteins that carry complementary halves of the luciferase interact, the enzyme can refold in its functional conformation and, upon addition of its substrate, produce luminescence proportionally to the amount of reporter proteins interacting at a given time. N2a cells were seeded in 96-well plates with opaque walls and transparent bottom (PerkinElmer, ViewPlate 96). Cells were transfected with Lipofectamine 2000 according to the manufacturer’s instructions 24 h post-plating with the PCA pair plasmids: phGLuc(1C)-TrkB(WT) or the mutant phGLuc(1C)-TrkB(Y433F) and phGLuc(2 C)-TrkB(WT) for the dimerization experiments; phGLuc(1C)-lipid raft Fyn and phGLuc(2C)-TrkB(WT) or phGLuc(2C)-TrkB(Y433F) for the lipid raft localization experiments. Forty-eight hours post transfection, cells were treated (40 min, 37 °C) in phenol red-free Dulbecco’s modified Eagle medium without serum. […] The PCA signal was detected with the substrate for the luciferase, native coelenterazine, which was injected into each well directly in the plate reader at a final concentration of […].

[3] = system: dendritic arbor complexity of neuronal cultures; test: Dendritogenesis (Sholl analysis) in neuronal cultures (WT and Y433F^+/−); type: cell-based, mouse; details: for Sholl analysis, Mean at distance from soma: fig 6j
Procedure: In a separate set of experiments to study the effects of extracellular BDNF and 5-HT2A activation, cultures were also pretreated for 10 min with TrkB.FC (200 ng ml^−1) or M100907 (100 nM), respectively. Similar to treatment with the psychedelics, TrkB.FC and M100907 pretreatments were administered in cumulative doses and remained in the medium for the rest of the experiment. At DIV7, neurons were pre-incubated for 1 h with […] MgCl2 to prevent excitotoxicity, then neurons were transfected for the heterologous expression of mCherry. To minimize any possible interference of the transfection protocol upon the drug effect, transfection was done in the morning while treatment with psychedelics was always added in the evening. Twenty-four hours after transfection, neurons were fixed with 4% PFA for 20 min at room temperature, washed in PBS-T, blocked for 30 min with 3% BSA in PBS-T and incubated with chicken anti-MAP2 (Abcam, ab5392; 1:5,000, 1 h, room temperature). Then, coverslips were washed in PBS-T and incubated with Alexa Fluor 647-conjugated antibody goat anti-chicken (Invitrogen, A-21449; 1:1,000, 1 h, room temperature). Next, coverslips were washed in PBS-T and MilliQ water, and mounted in Dako fluorescence mounting medium (Agilent, S302380-2). Ten optical sections with a Z-step of 1.3 μm were acquired using a Zeiss LSM 710 confocal microscope with a LCI Plan/Neofluar 25×/0.8 lmm Korr DIC M27 objective. In the mCherry channel, the center of the soma was manually assigned and the number of dendritic intersections at fixed distances (every 5 μm) from the soma was automatically counted using the Sholl analysis plugin of ImageJ.

[4] = system: spine density of neuronal cultures; test: Spinogenesis in mature neuronal cultures (WT and Y433F^+/−); type: cell-based, mouse; parameters: 6d: Mean (spinogenesis, spine density) / 6e: Mean (spinogenesis, spine density): unit not given here
Procedure: Spinogenesis experiments were performed similarly to previous studies[12],[13] with modifications. […] In a separate set of experiments to study the effects of extracellular BDNF and 5-HT2A activation, cultures were also pretreated for 10 min with TrkB.FC (200 ng ml^−1) or M100907 (100 nM), respectively. TrkB.FC and M100907 remained in the medium for the rest of the experiment. Twenty-four hours later, coverslips were fixed with 4% PFA, washed with PBS, incubated with blocking buffer (0.1% Triton X-100, 0.05% Tween-20, 10% normal donkey serum, 1% BSA and 0.1% gelatin in PBS) for 1 h at room temperature and then overnight with rabbit anti-MAP2 (Invitrogen, PA5-17646; 1:100) primary antibody at 4 °C. After washing with PBS, coverslips were incubated with CF568-conjugated donkey anti-rabbit (Biotium, 20098; 1:500) for 1 h at room temperature. Another round of PBS washes was followed by incubation with Alexa Fluor 647-conjugated phalloidin (Invitrogen, A22287; 1:40) overnight at 4 °C. Next, coverslips were briefly washed in phosphate buffer (PB) and mounted on slides with ProLong Glass Antifade Mountant (Invitrogen, P36982). We used a Zeiss LSM 880 confocal microscope with an AiryScan GaAsP detector equipped with a PlanApochromat 63×/1.4 NA objective. We used the BP 495–550 + LP 570 AiryScan filter and Zen Black in super-resolution mode for image acquisition. Pinhole size was adapted accordingly, and frame size was set to optimal. Sensors were set to continuous adjustment across the imaging sessions to ensure optimal sensor alignment and signal detection. Raw data were processed into AiryScan images with the autofilter mode on using Zen Blue. Finally, image analysis was performed in ImageJ by experimenters blinded for treatment and genotype. Spines were quantified in 15-µm-long dendrite sections.

[5] = molecular target: T3, eGFP-tagged TrkB (WT) (Rattus norvegicus, UniProt Q63604); test: Microscale thermophoresis (MST) in HEK293T lysates; type: binding; details: native (WT) TrkB
T3 construct: expressed in transfected cells; host or cells: HEK293T
Procedure: MST experiments were performed using the Monolith NT.115 (Blue/Red) instrument (NanoTemper Technologies). Lysates of HEK293T cells expressing GFP-tagged TrkB (WT, Y433F, TrkA.TM) were lysed, vortexed, sonicated and centrifuged 24 h after transient transfection and used as a source of fluorescently labeled TrkB, similarly to previously described protocols[11],[45]–[47]. The advantage of this approach is the possibility of studying the proteins in close-to-native conditions. However, the presence of other proteins, lipids, nucleic acids and other components of crude cell lysates can alter the diffusion of biomolecules and therefore binding affinities. High viscosity and background signal typically results in the affinity values being orders of magnitude […] than those of more traditional binding assays. […] The measurements were performed in premium coated capillaries (NanoTemper Technologies, MO-K025) using a LED source with 470 nm and 50% infrared-laser power at 25 °C. Analysis was performed using MO Affinity Analysis 2.3. Results were fitted to specific binding with Hill slope equations from GraphPad Prism 9.2.

[6] = molecular target: T1, TrkB; test: Biotin-labeled BDNF binding to immunoprecipitated TrkB; details: ext fig 1e, n=4
Procedure: Binding assays were performed as previously described with minor modifications. […] Samples from mouse embryo (E18) brains were also lysed, vortexed, sonicated and centrifuged for binding assays. Plates were then washed with PBS. […] For the competition binding assays with biotinylated R,R-HNK, the amino-biotinylation of R,R-HNK was performed using a commercial kit (Thermo Scientific, EZ-Link NHS-PEG4 Biotinylation Kit, 21455) and the reaction monitored by MS. A mixture of biotinylated R,R-HNK (10 µM) and unlabeled compounds (1 pM to 10 µM) in PBS was added to the 96-well plates containing the immunoprecipitated TrkB and incubated for 1 h at room temperature. […] Luminescence was determined via streptavidin conjugated with horseradish peroxidase (HRP; Thermo Fisher Scientific, 21126; 1:5,000, 1 h at room temperature) in reaction with the Pierce ECL substrate (Thermo Fisher Scientific, 32106). Luminescence from blank wells that contained all reagents but the sample lysates was used to determine nonspecific binding. To obtain the binding curves, results from binding assays were fitted to the equation of specific binding with Hill slope from GraphPad Prism 9.2. To calculate koff values, results were fitted to the equation of dissociation of one phase exponential decay from GraphPad Prism 9.2.

[7] = treatment alone (other factor Vehicle)
[8] = TrkB.FC 200 ng ml^−1 or M100907 100 nM

T1 sequence (Q63604 32-821): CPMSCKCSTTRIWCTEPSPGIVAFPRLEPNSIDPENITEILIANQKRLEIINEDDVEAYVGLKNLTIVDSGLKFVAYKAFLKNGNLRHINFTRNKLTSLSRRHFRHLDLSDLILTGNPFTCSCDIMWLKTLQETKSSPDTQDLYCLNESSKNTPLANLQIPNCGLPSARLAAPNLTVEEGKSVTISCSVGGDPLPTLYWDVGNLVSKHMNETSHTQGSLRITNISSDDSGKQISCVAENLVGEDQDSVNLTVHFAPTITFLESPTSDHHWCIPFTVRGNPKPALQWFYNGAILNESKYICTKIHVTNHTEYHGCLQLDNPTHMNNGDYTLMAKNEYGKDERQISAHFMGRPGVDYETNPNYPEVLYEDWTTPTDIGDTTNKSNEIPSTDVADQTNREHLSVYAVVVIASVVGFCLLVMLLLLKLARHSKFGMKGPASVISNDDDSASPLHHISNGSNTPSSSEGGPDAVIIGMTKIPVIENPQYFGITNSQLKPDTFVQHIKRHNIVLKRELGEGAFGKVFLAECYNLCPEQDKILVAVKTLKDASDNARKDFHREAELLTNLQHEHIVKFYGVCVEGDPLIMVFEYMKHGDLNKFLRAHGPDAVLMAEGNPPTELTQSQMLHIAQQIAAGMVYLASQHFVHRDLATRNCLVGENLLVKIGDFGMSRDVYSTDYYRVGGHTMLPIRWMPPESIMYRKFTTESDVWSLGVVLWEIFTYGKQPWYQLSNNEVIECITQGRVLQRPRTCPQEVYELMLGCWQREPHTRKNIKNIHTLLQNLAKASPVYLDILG
T2 sequence (Q63604 32-821): as above
T2 sequence (Q63604 32-821): as above
T3 sequence (Q63604 32-821): as above

N[C@@]1(c2ccccc2Cl)CCC[C@@H](O)C1=O [R,R-HNK, 2R,6R-hydroxynorketamine]
Ki ([1]; displacement of ^3H-LSD, read-out: Ki): 0.166 ± 0.0211 µM | Bmax (specific binding with Hill slope, best-fit) [1]: 107.6 | h (Hill slope, best-fit) [1]: -0.8819

CN(C)CCCN1c2ccccc2Sc2ccc(Cl)cc21 [chlorpromazine]
displacement of ^3H-LSD from TrkB [1]: fail to displace ^3H-LSD | Fit status, one phase exponential decay ([1]; ext fig 1h): Interrupted | K (one phase exponential decay, best-fit) ([1]; ext fig 1h): 6.169 | Plateau (one phase exponential decay, best-fit) ([1]; ext fig 1h): 142318 | Span (one phase exponential decay, best-fit) ([1]; ext fig 1h): -142224

CN1C(=O)CN=C(c2ccccc2)c2cc(Cl)ccc21 [diazepam]
displacement of ^3H-LSD from TrkB [1]: fail to displace ^3H-LSD | Fit status, one phase exponential decay ([1]; ext fig 1h): Not converged

CNC1(c2ccccc2Cl)CCCCC1=O (centres unmarked) [ketamine, Ketamine hydrochloride]
Ki [1]: 20.8 ± 8.86 µM | Bmax (specific binding with Hill slope, best-fit) [1]: 98.59 | h (Hill slope, best-fit) [1]: -0.5468

TrkB.FC: TrkB receptor bodies that sequester extracellular BDNF
effect of pretreatment on LSD- and BDNF-induced TrkB dimerization ([2]; ketanserin 100 nM, M100907 100 nM or TrkB.FC 200 ng ml^−1, 10 min before): prevents the effects of LSD and BDNF on TrkB dimerization | Group mean (Mean 2; Vehicle:Vehicle = 100), fig 4e [2, 7]: 100 | effect of pretreatment on LSD effects on dendritogenesis [3, 8]: prevented LSD effects on dendritogenesis | dendritic arbor complexity, Mean Diff. (Vehicle:vehicle vs. group) ([3]; fig 6i, Bonferroni's multiple comparisons test): 9.033 | dendritic arbor complexity, group mean (Mean 2) ([3]; fig 6i, treatment:pretreatment groups, Vehicle:vehicle mean 69.72): 60.69 | Sholl analysis, Mean at distance from soma ([3]; distance from soma 10 µm): 6.276 | Sholl analysis, Mean at distance from soma ([3]; distance from soma 15 µm): 6.586 | Sholl analysis, Mean at distance from soma ([3]; distance from soma 20 µm): 5.414 | Sholl analysis, Mean at distance from soma ([3]; distance from soma 25 µm): 4.966 | Sholl analysis, Mean at distance from soma ([3]; distance from soma 30 µm): 4.621 | Sholl analysis, Mean at distance from soma ([3]; distance from soma 35 µm): 3.655 | Sholl analysis, Mean at distance from soma ([3]; distance from soma 40 µm): 3.414 | Sholl analysis, Mean at distance from soma ([3]; distance from soma 45 µm): 2.655 | Sholl analysis, Mean at distance from soma ([3]; distance from soma 50 µm): 2.724 | Sholl analysis, Mean at distance from soma ([3]; distance from soma 55 µm): 2.759 | Sholl analysis, Mean at distance from soma ([3]; distance from soma 60 µm): 2.2069 | Sholl analysis, Mean at distance from soma ([3]; distance from soma 65 µm): 2.241 | Sholl analysis, Mean at distance from soma ([3]; distance from soma 70 µm): 2.172 | Sholl analysis, Mean at distance from soma ([3]; distance from soma 75 µm): 1.897 | Sholl analysis, Mean at distance from soma ([3]; distance from soma 80 µm): 1.862 | Sholl analysis, Mean at distance from soma ([3]; distance from soma 85 µm): 2.034 | Sholl analysis, Mean at distance from soma ([3]; distance from soma 90 µm): 1.931 | Sholl analysis, Mean at distance from soma ([3]; distance from soma 95 µm): 1.621 | Sholl analysis, Mean at distance from soma ([3]; distance from soma 100 µm): 1.655 | effect of pretreatment on spinogenic effect of LSD [4, 8]: prevented the spinogenic effect of LSD | 6e: Mean Diff. (Vehicle:Vehicle vs. treatment), Bonferroni's multiple comparisons test ([4]; substance alone (with vehicle)): -0.45 | 6e: Mean (spinogenesis, spine density) ([4]; substance alone (with vehicle), Vehicle:Vehicle mean 7.05): 7.5

B1: BDNF: Brain-derived neurotrophic factor (protein, UniProt P23560 19-247, looked up)
Neurotrophic factor BDNF …: APMKEANIRGQGGLAYPGVRTHGTLESVNGPKAGSRGLTSLADTFEHVIEELLDEDQKVRPNEENNKDADLYTSRVMLSSQVPLEPPLLFLLEEYKNYLDAANMSMRVRRHSDPARRGELSVCDSISEWVTAADKKTAVDMSGGTVTVLEKVPVSKGQLKQYFYETKCNPMGYTKEGCRGIDKRHWNSQCRTTQSYVRALTMDSKKRIGWRFIRIDTSCVCTLTIKRGR
Group mean (Mean 2; Control:Vehicle = 100), fig 4f ([2]; BDNF 0.1ng/ml, Control (no LSD), n=8): 147.4 | Group mean (Mean 2; Vehicle:Vehicle = 100), fig 4e [2, 7]: 144.1 | Group mean (Mean 2; Vehicle:Vehicle = 100), fig 4e ([2]; with TrkB.FC): 103 | binding by MST [5]: induces a shift in fluorescence | Bmax (specific binding with Hill slope, best-fit) [6]: 7.546 | h (Hill slope, best-fit) [6]: 0.8134 | Kd ([6]; read-out: Kd (specific binding with Hill slope, best-fit)): 1.22 µM
